Measured values published in US12448383B2, “Compounds and methods for treatment of viral infections” (priority 2022, dated 2025).

Assays:
[1] = GI S9 stability - no PMSF; type: in vitro ADME; conditions: pH 7.4; human intestinal S9, PMSF-free; read-out: GIS9-HUMAN-NoPMSF T1/2
How it was run: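 Stability was assessed by Q-Exactive LC-MS peak area ratios against internal standard, tracking loss of parent and appearance of nucleoside metabolite Reference Compound A. Incubations used 2 μM compound in 1 mg/mL intestinal S9 without PMSF (PBS, pH 7.4), with six samples taken over 120 min.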

[2] = Stability in pH2 buffered solution; type: physicochemical; conditions: pH2 phosphate buffer, 40° C., 24 h; Table N2
Method: (§1) Example N: Stability in p112 and p117 Buffered Solutions
(§2) The aqueous stability of compounds over a time of 24 hours at 40° C. was assessed. Stability was determined in 50 mM phosphate buffered solutions at both pH2 and pH7, with 150 mM NaCl (to achieve isotonicity). 3-5 mg of solid compounds were added to 7 mL scintillation vials. Acetonitrile was added to each vial to produce a 1 mg/mL stock solution. Stock solutions were diluted to 50 μg/mL in either pH2 or pH7 phosphate buffer, to a volume of 1 mL. For each compound and pH condition, 50 μg/mL samples were prepped in duplicate. One sample was placed on the UPLC tray at 40° C. for analysis, and the second sample was placed in a 40° C. oven for storage. Sample preps for each compound were offset by 40 minutes to account for run time on UPLC.
(§3) Concentration timepoints were measured at 0, 3, 6, 9, and 12 hrs. After 24 hrs, samples in the 40° C. oven were removed and analyzed by UPLC.
(§4) In FIG. 2, % AN stands for % area normalized. That is, % AN is the area of the compound peak relative to the sum of areas of all the peaks in the UPLC chromatogram. For example, if there were two peaks, compound peak with an area of 9 and another peak with an area of 1, then the % AN of the compound peak would be 90%.

[3] = CC50 MT4 cytotoxicity (Cell-Titer Glo); type: cell-based; conditions: human
How it was run: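 CC50 values are the concentrations cutting viability by 50%, fitted by non-linear regression against untreated (100%) and 2 μM puromycin (0%) controls. Cell-Titer Glo luminescence measured after 4-5 days at 37° C exposure of uninfected MT-4 and HEp-2 cells to 3-fold dilutions spanning 15 nM to 100,000 nM.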

[4] = tested on: Caco-2 cells (clone C2BBe1); assay: CACO-2 permeability; type: in vitro ADME; design: unit not given here; conditions: for DM Caco2 A to B: apical to basolateral, donor pH 6.5, receiver pH 7.4; for DM Caco2 B to A: basolateral to apical
How it was run: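 A-to-B and B-to-A flux measured by LC-MS/MS from receiver samples taken at 1 and 2 h, with donor sampled at 0 and 2 h and recovery checked. Buffers: pH 6.5 HBSS with 200 μM BNPP on the donor side, pH 7.4 with BSA on the receiver side. Monolayers were 21-day cultures, TEER-verified, in duplicate wells.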

[5] = tested on: SARS Coronavirus 2 recombinant with NanoLuc (SARS-CoV2-NLuc) in A549-hACE2 cells; assay: organism not typed; type: cell-based; conditions: 48 h; read-out: SARS-CoV2 EC50
Plasma stability = type: in vitro ADME; design: unit not given here; conditions: 37° C., 2 μM substrate
How it was run: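 LC-MS (Q-Exactive, 5 ppm tolerance, 0.1% formic acid water/acetonitrile gradient) quantified compound in quenched aliquots. Aliquots were taken at 0.05, 0.5, 1, 2, 3 and 4 hr and quenched with internal-standard solution, and supernatants were diluted with water after centrifugation.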

[6] = Stability in pH7 buffered solution; type: physicochemical; conditions: pH7 phosphate buffer, 40° C., Table N2
Method: as §1, §2, §3, §4

[7] = Thermodynamic solubility in pH7 buffered solution; conditions: 50 mM phosphate buffer pH7, 150 mM NaCl, ambient temperature, 24 hours
Method: Solubility was determined at ambient temperature in a 50 mM phosphate buffered pH7 solution with 150 mM NaCl (to achieve isotonicity). Solids were added to the buffered solution in 1.5-mL Eppendorf tubes, vortexed for 1 minute, then agitated for 24 hours in an Eppendorf ThermoMixer C. […] Supernatants were diluted to a volume of 1 mL with 30:70 v/v acetonitrile:water. All diluted supernatants were analyzed by UPLC using a Waters Acquity UPLC with a PDA UV detector.

[8] = tested on: Respiratory syncytial virus recombinant with luciferase (RSV-Luc5) in Normal Human Bronchial Epithelial (NHBE) cells; assay: microbe, parasite or virus in culture; type: cell-based; conditions: 72 h, read-out: RSV NHBE EC50

COC(=O)OC[C@H]1O[C@@](C#N)(c2ccc3c(N)ncnn23)[C@H](OC(=O)OC)[C@@H]1OC(=O)OC [Compound 93, (2R,3R,4R,5R)-2-(4-aminopyrrolo[2,1-f][1,2,4]triazin-7-yl)-2-cyano-5-(((methoxycarbonyl)oxy)methyl)tetrahydrofuran-3,4-diyl dimethyl bis(carbonate)]
half-life at 2 µM [1]: 61 s
pH 2 Stability 24 h % AN [2]: 94 % AN
CC50 [3]: 31.7 µM
DM Caco2 A to B [4]: 1.2
DM Caco2 B to A [4]: 8.3
EC50 [5]: 10.6 µM
STA Human Plasma 37 (Plasma stability): 28.444
pH 7 Stability 24 h % AN [6]: 75 % AN
Sol pH 7 [7]: 0.62
EC50 [8]: 11.1 µM

COC(=O)[C@H]([C@@H](C)OC(=O)OC[C@H]1O[C@@](C#N)(c2ccc3c(N)ncnn23)[C@H](O)[C@@H]1O)N(C)C [Compound 78, methyl O-((((2R,3S,4R,5R)-5-(4-aminopyrrolo[2,1-f][1,2,4]triazin-7-yl)-5-cyano-3,4-dihydroxytetrahydrofuran-2-yl)methoxy)carbonyl)-N,N-dimethyl-L-threoninate]
half-life at 2 µM [1]: 4320 s
pH 2 Stability 24 h % AN [2]: 90 % AN
CC50 [3]: > 50 µM
DM Caco2 A to B [4]: 0.2
DM Caco2 B to A [4]: 4.2
EC50 [5]: 3.58 µM
STA Human Plasma 37 (Plasma stability): 336.23
pH 7 Stability 24 h % AN [6]: 0 % AN
Sol pH 7 [7]: 0.89
EC50 [8]: 3.6 µM

CCC1O[C@H]2[C@@H](O1)[C@](C#N)(c1ccc3c(N)ncnn13)O[C@@H]2COC(=O)OC(C)C (stereo partly drawn) [Compound 133, ((3aR,4R,6R,6aR)-6-(4-aminopyrrolo[2,1-f][1,2,4]triazin-7-yl)-6-cyano-2-ethyltetrahydrofuro[3,4-d][1,3]dioxol-4-yl)methyl isopropyl carbonate]
half-life at 2 µM [1]: 37.4 s
pH 2 Stability 24 h % AN [2]: 95 % AN
CC50 [3]: > 50 µM
DM Caco2 A to B [4]: 17.25
DM Caco2 B to A [4]: 16.82
EC50 [5]: > 50 µM
STA Human Plasma 37 (Plasma stability): 73.357
pH 7 Stability 24 h % AN [6]: 98 % AN
Sol pH 7 [7]: 0.24
EC50 [8]: > 50 µM

CCOC(=O)OC[C@H]1O[C@@](C#N)(c2ccc3c(N)ncnn23)[C@H](OC(=O)OCC)[C@@H]1OC(=O)OCC [Compound 106, (2R,3R,4R,5R)-2-(4-aminopyrrolo[2,1-f][1,2,4]triazin-7-yl)-2-cyano-5-(((ethoxycarbonyl)oxy)methyl)tetrahydrofuran-3,4-diyl diethyl bis(carbonate)]
half-life at 2 µM [1]: 39.6 s
pH 2 Stability 24 h % AN [2]: 100 % AN
CC50 [3]: > 50 µM
DM Caco2 A to B [4]: 4.975
DM Caco2 B to A [4]: 9.5
EC50 [5]: 4.56 µM
STA Human Plasma 37 (Plasma stability): 30.917
pH 7 Stability 24 h % AN [6]: 91 % AN
Sol pH 7 [7]: 0.08
EC50 [8]: 1.4 µM

CC(=O)O[C@H]1[C@@H](OC(C)=O)[C@](C#N)(c2ccc3c(N)ncnn23)O[C@@H]1COC(=O)OC(C)(C)c1ccncc1 [Compound 79, (2R,3R,4R,5R)-2-(4-aminopyrrolo[2,1-f][1,2,4]triazin-7-yl)-2-cyano-5-(((((2-(pyridin-4-yl)propan-2-yl)oxy)carbonyl)oxy)methyl)tetrahydrofuran-3,4-diyl diacetate]
half-life at 2 µM [1]: 40.9 s
pH 2 Stability 24 h % AN [2]: 88 % AN
CC50 [3]: > 50 µM
DM Caco2 A to B [4]: 0.61
DM Caco2 B to A [4]: 9.26
EC50 [5]: > 50 µM
STA Human Plasma 37 (Plasma stability): 17.837
pH 7 Stability 24 h % AN [6]: 77 % AN
Sol pH 7 [7]: 0.26
EC50 [8]: > 50 µM

CC(C)OC(=O)Nc1ncnn2c([C@]3(C#N)O[C@H](COC(=O)OC(C)(C)C)[C@@H](O)[C@H]3O)ccc12 [Compound 63, isopropyl (7-((2R,3R,4S,5R)-5-(((tert-butoxycarbonyl)oxy)methyl)-2-cyano-3,4-dihydroxytetrahydrofuran-2-yl)pyrrolo[2,1-f][1,2,4]triazin-4-yl)carbamate]
half-life at 2 µM [1]: 10900 s
pH 2 Stability 24 h % AN [2]: 3 % AN
CC50 [3]: > 50 µM
DM Caco2 A to B [4]: 1.18
DM Caco2 B to A [4]: 12.46
EC50 [5]: > 50 µM
STA Human Plasma 37 (Plasma stability): 1584
pH 7 Stability 24 h % AN [6]: 0 % AN
Sol pH 7 [7]: 0.82
EC50 [8]: 41.6 µM
